We go through three compounds from patent US20050239873A1 (priority 1999, published 2005).

The term half-life denotes how long it takes for the measured level to halve.

Bounds are passed on as bounds.

The test system of one data set is RPMI-8226 cells. Put plainly: Mitochondrial membrane potential (safranin O). It is filed as cell-based, human. The procedure: RPMI-8226 cells (2×10^7) were resuspended in buffer containing 130 mM KCl, 5 mM malate, 5 mM glutamate, 2 mM KPO4, 5 mM HEPES, pH 7.0 with 5 μM safranin O dye, in a stirred cuvette at 28° C. Fluorescence was measured at 495 nm excitation, 586 nm emission on a RF-5301PC spectrofluorophotometer (Shimadzu, Japan). Safranin O fluorescence was quenched following addition of 0.0025% digitonin as the dye accumulates in active mitochondria (Fiskum et al., Methods Enzymol. 322:222-234, 2000). Depolarization of the mitochondrial inner membrane caused a shift of safranin O localization from mitochondria to cytoplasm, evident as increased fluorescence.

The subject of data set [1] is mitochondria from TABX1A cells. Put plainly: Swelling of isolated mitochondria (absorbance at 540 nm). As to conditions: even at much higher concentrations. On the set-up: species or system murine.
For data set [2], the system named is TAMH cells that over-express Bcl-2. As to the kind of experiment: Sensitivity of Bcl-2 over-expressing cells to antimycin A. It is filed as cell-based, murine. As to conditions: vs control cells.
The next data set relates to AML-12.Bcl-xL cells. Put plainly: Sensitivity of non-tumorigenic liver cells to antimycin A. It is filed as cell-based, mouse. As to conditions: vs AML-12 control transfectants. An excerpt: The effects of BCl-xL over-expression on non-tumorigenic cells was also examined. […] Briefly, AML-12 cells were transfected as described above with pSFFV.Bcl-xL(sense) and pSFFV.neo. AML-12-pSFFV. Bcl-xL(sense) cells expressed approximately 3 to 4 fold higher BCl-xL protein levels than did AML-12 cells transfected with the control plasmid, pSFFV.neo, when assayed by Western blot analysis.

The target in data set [3] is T1, recombinant human Bcl-2ΔC22 (Homo sapiens, UniProt P10415).
T1 construct: poly-His (N); made in house
T1 sequence (P10415 1-217 limits assumed, stated change not applied): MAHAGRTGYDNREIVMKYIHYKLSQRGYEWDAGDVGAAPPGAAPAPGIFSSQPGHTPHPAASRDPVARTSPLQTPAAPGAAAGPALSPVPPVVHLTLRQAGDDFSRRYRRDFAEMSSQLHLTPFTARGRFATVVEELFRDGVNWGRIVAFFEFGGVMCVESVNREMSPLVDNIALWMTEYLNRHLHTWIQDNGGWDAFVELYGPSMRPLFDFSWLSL
As to the kind of experiment: Antimycin A3 fluorescence binding and competition assay. As to conditions: 2 μM each, Bcl-2 3 μM, 7.5 minutes, 22.5° C. As for the experimental part: In this assay, 0 to 5 μM antimycin A3 (Sigma Chemical Co., St. Louis, Mo.) was added to a physiological buffer (50 mM Tris-HCl pH 8.0, 0.2 M NaCl, 2 mM EDTA, 0.5% v/v glycerol) containing recombinant Bcl-2 or BCl-xL protein under conditions that permitted antimycin A3 to bind to the BH3-binding domain of Bcl-2 or BCl-xL (22.5° C. on a Hitachi F-2500 fluorescence spectrofluorimeter equipped with a thermostatted cell holder). […] The excitation wavelength was 335 nm, and the maximum emission wavelength for antimycin A3 was 428 nm with a slit width of 10 nm. The samples were mixed in a quartz cuvette and checked for inner filter effect over the concentration range of antimycin A3 used for this study. Blanks containing antimycin A3 at the same concentration as the experimental samples were used as controls in all measurements and necessary background corrections were made.
Recombinant human Bcl-2ΔC22 (a recombinant human Bcl-2 with a delection of 22 amino acid residue membrane anchor sequence from the carboxyl end) and mouse Bcl-xLΔC20 (a recombinant murine BCl-xL with a delection of the 20 amino acid residue membrane anchor sequence from the carboxyl end) fused with poly-His at the N-terminus were chromatographically purified to homogeneity. The concentrations of antimycin A3 and stock solutions of recombinant proteins were quantitated using an extinction coefficient of 7.24/mM/cm at 320 nm and by Bradford assay, respectively. The stoichiometric ratio of antimycin A3 and Bcl-2 producing the maximal change in antimycin A3 fluorescence was determined with incremental addition of antimycin A3 to a 1.98 μM solution of recombinant Bcl-2 in a volume of 2.1 milliliters. […] For peptide displacement experiments, a solution of 2 μM antimycin A3 and 3 μM Bcl-2 was allowed to reach binding equilibrium at 4° C. prior to fluorescence measurements. Native peptide corresponding to the BH3 domain of Bak (72-[…]87 (SEQ ID NO:1)) or a mutant peptide with a single amino acid change (Leu78Ala-BH3) was added to the solution and the fluorescence measurements were repeated. […]

The nature of data set [4]: Binding to plasma proteins (ultrafiltration). The class given is in vitro ADME, mouse. As to conditions: mouse, plasma, presence of NaF+EDTA, read-out: Protein binding, Mouse. As for the experimental part:
Solutions of 2-OMe antimycin A3 were diluted with plasma (dog or human) containing NaF+EDTA to final concentrations of 1.0 or 0.2 μg/ml. Controls were diluted with water to the same final concentrations. These preparations were incubated at 37° C. for 20 min, at which time portions were taken and placed in the sample reservoirs of Amicon Centrifree® ultrafiltration systems (Millipore Co., Bedford, Mass.). At 37° C., the filter systems were centrifuged until the reservoirs were dry. From each filtrate, portions were taken for analysis by HPLC. The amounts present were designated as “free drug” (F). The concentrations of the unfiltered solutions were also determined by triplicate analyses. This amount represented the “total drug” concentration (T). The percentage of 2-OMe antimycin A3 bound to plasma proteins was calculated by the following formula: % bound=((T−F)/T)×100

Another data set in a line: S9 metabolism. As to conditions: male, hepatic S9 fraction, pH 7.4; for half-life at 500 ng/ml: 37° C. It is filed as in vitro ADME. An excerpt:
All chemicals and solvents used for sample preparation and HPLC analysis were analytical grade. Acetonitrile, methanol, and phosphoric acid were purchased from Fisher Scientific (Atlanta, Ga.). Hepatic S9 fractions from male CD2F1 mice, male Sprague Dawley rats, male dogs, and male humans were purchased from In Vitro Technologies (Boston, Mass.). The National Cancer Institute provided samples of the test compounds and male CD2F1 mice. Fischer 344 rats with implanted jugular cannulas were obtained from Charles River Laboratories (Cambridge, Mass.). All animal use and care procedures were approved by the Institutional Committee on Animal Use and Care at the University of Alabama at Birmingham and conformed to the guidelines found in Guide for the Care and Use of Laboratory Animals, National Academy Press, 1996.
To evaluate metabolism of the test compounds by S9 fractions from various species, reaction systems maintained at 37° C. contained 2-OMe-A3 (500 ng/ml) and S9 (1 mg protein/ml) in 100 mM Tris buffer (pH 7.4). At selected times, triplicate portions of the mixtures were removed and processed for analysis, as described above.

With 2-methoxy antimycin A [2-OMeA], the “acute changes in mitochondrial membrane potential” value with RPMI-8226 cells was “No acute changes”.
As to antimycin A, the mitochondrial swelling result in data set [1] was “did not exhibit similar permeability changes and swelling”. Also, the entries for the “sensitivity to antimycin A” value (in data set [2]; in the data set with AML-12.Bcl-xL cells) were “more sensitive” and “increased sensitivity”, respectively.
Turning to `CCCC[C@H]1C(=O)OC(C)[C@H](NC(=O)c2cccc(NC=O)c2OC)C(=O)O[C@@H](C)C1OC(=O)CC(C)C` (stereo partly drawn) [2-OMeA3, Antimycin A3 methyl ether], in data set [3], the “competition with antimycin A3 for Bcl-2” value is on record as “competition for the antimycin A3 binding site”. Further, the fraction unbound at 20 min, 1000 ng/ml in data set [4] was less than 0.01. The half-life at 2000 ng/ml was greater than 5 min in the data set “S9 metabolism” (CD2F1, mouse); greater than 5 min in “S9 metabolism” (Sprague Dawley, rat); greater than 5 min in “S9 metabolism” (dog). Further, the half-life at 500 ng/ml in “S9 metabolism” (CD2F1, mouse) is greater than 5 min; in “S9 metabolism” (Sprague Dawley, rat) it was greater than 5 min; in “S9 metabolism” (dog), greater than 5 min.
